# Legend:
# [1] = mouse models, high concentrations; cited from earlier work
# PLD2 = target: T1, PLD2 (Homo sapiens, UniProt O14939); test: In vitro PLD activity, exogenous substrate assay, PLD2; format: biochemical; conditions: purified recombinant PLD2, 30 min at 37° C.
# T1 construct: made in house
# Experimental: (§1) In FIG. 13A, MDA-MB-231 cells were plated as in FIGS. 12A-C and then shifted to either 10% serum or 0.5% serum overnight as indicated. Honokiol (20 μM) or control ethanol was then added for 4 hr as indicated, at which time the cells were harvested and the levels of PBt were determined as in FIGS. 12A-C. The experiment shown is representative of at least three independent experiments. In FIG. 13B, the effect of honokiol on the activity of PLD isoforms was measured using exogenous substrate assay as described previously (Henage et al., “Kinetic Analysis of a Mammalian Phospholipase D: Allosteric Modulation by Monomeric GTPases, Protein Kinase C, and Polyphosphoinositides,” J. Biol. Chem. 281:3408-17 (2006), which is hereby incorporated by reference in its entirety). […] The amount of background was determined and subtracted using a bovine serum albumin standard. […]
# (§2) For in vivo PLD activity, cells were plated in 60 mm culture dishes in DMEM with 10% serum at a density that would allow them to grow to about 80% confluence after 2 days, then cells were shifted to DMEM containing 0.5% or 10% serum as indicated in the figure legends overnight. […] Briefly, PLD activity was measured by the release of [methyl-^3H] choline from [choline-methyl-^3H]dipalmitoyl-phosphatidylcholine. […]
# [2] = system: PLD activity in MDA-MB-231 cells; test: In vivo PLD activity (transphosphatidylation, PBt) in MDA-MB-231 cells; format: cell-based, human; conditions: honokiol 20 μM, 4 hr
# Experimental: as §1, §2
# [3] = system: B-cell chronic lymphocytic leukemia cells; conditions: Battle et al. 2005; cited from earlier work
# HIF2α = HIF2α expression in 786-O cells (Western blot); format: cell-based, human; conditions: 0.5% serum, 4 hr, honokiol 20 μM, 1-BtOH 0.8%
# Experimental: In FIG. 15B, 786-O cells were plated and then shifted to media containing 0.5% serum 24 hr later. 18 hr later, the cells were treated with 1-Bt0H (0.8%), honokiol (Hon) (20 μM), and t-BtOH (0.8%) as indicated. Cell lysates were prepared 4 hr later and examined for HIF2α and actin expression by Western lot analysis. The experiment shown is representative of two independent experiments.
# Extraction of proteins from cultured cells and Western blot analysis of extracted proteins was performed using the ECL system (Amersham) as described previously (Chen et al., “Alternative Phospholipase D/mTOR Survival Signal in Human Breast Cancer Cells,” Oncogene 24:672-9 (2005), which is hereby incorporated by reference in its entirety).
# The effect of honokiol on HIF2α expression was examined in these cells.
# T1 sequence (O14939 whole entry): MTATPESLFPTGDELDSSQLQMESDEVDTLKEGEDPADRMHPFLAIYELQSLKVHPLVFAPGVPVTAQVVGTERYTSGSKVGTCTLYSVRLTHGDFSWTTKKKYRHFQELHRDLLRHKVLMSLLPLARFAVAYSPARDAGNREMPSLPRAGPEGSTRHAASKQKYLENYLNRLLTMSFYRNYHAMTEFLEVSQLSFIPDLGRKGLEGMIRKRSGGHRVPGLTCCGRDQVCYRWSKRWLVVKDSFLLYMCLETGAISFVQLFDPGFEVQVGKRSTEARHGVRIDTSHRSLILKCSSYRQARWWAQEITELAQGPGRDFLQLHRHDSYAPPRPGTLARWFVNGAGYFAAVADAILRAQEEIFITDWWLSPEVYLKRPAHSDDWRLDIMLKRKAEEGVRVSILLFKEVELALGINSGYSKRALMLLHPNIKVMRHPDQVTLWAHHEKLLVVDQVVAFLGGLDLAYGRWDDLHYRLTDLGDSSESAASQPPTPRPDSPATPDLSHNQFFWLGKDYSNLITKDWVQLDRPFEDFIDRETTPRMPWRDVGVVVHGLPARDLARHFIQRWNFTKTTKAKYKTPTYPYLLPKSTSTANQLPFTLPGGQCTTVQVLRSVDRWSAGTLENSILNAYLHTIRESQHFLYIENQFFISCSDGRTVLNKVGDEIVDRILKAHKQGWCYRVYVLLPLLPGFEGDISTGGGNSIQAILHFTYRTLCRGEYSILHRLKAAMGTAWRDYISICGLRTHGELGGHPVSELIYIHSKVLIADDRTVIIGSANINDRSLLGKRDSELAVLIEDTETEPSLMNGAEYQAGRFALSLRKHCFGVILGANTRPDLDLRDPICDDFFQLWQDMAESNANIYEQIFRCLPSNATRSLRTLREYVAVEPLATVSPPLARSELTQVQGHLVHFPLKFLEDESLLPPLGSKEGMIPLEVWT
smiles,measurement,setting,value
"C=CCc1ccc(O)c(-c2ccc(O)c(CC=C)c2)c1 [honokiol, Honokiol]",tolerability,[1],well tolerated
same,in vitro activity of PLD2,PLD2,no significant effect
same,PLD activity in cells in 0.5% serum (stress-induced),[2]; 0.5% serum,completely suppressed
same,basal PLD activity in cells maintained in 10% serum,[2]; 10% serum,little effect
same,apoptosis in B-CLL cells,[3],induce caspase-dependent apoptosis
same,HIF2α expression,HIF2α,suppresses
